Data reported in patent US20250290110A1, “MOGROSIDE COMPOSITIONS AND METHODS OF PRODUCING SAME” (Elo Life Systems, priority 2024, published 2025).
“And” between values parts separate entries of the source, which are not always exact repeats. Equal values may be shown once.

What was measured:
[1] = Sweetness concentration response curve against sucrose reference standards, trained sensory panel; format: in vivo, human; settings: for potency, times as sweet as sucrose at 5 SEV: at 5 sucrose equivalent value (SEV)
Experimental: A blend composed of 80% purified mogroside-V (Chem Faces, CFS202202), 15% 11-oxo-mogroside-V (Chem Faces, CFS202201), and 5% mogroside IIIA-1 (Chem Faces, CFS202201) was diluted to six different concentrations (from 100 ppm to 650 ppm) in spring water (Ice Mountain, retail). For each solution, a set of five reference standards of sucrose dissolved in water in 0.5% (w/w) concentration increments was also prepared. Each concentration of the mogroside blend was evaluated by 6-8 trained judges. Samples were presented in 4-oz soufflé cups at room temperature, and the test sample was labeled with a random 3-digit code. Panelists tasted the blind-coded sample compared to the set of reference samples to determine the sweetness intensity score to the nearest 0.1 unit. Each concentration was evaluated in duplicate. The sweetness intensity scores were then plotted against the mogroside blend concentration to make a concentration response curve, and the best fitting Beidler equation was generated.
V90 is a 90% pure mogroside V containing about 6% 11-oxo mogroside-V. Five different concentrations of V90 (Huacheng Bio, LHGE-230401), ranging from 100 ppm to 500 ppm, were diluted in spring water (Ice Mountain, retail). Each dilution was presented to a panel of 7-8 judges experienced in evaluating sweeteners and was accompanied by a range of five sucrose solution reference standards bracketing the sweetness intensity of the test sample in 0.5% (w/w) increments. Panelists assigned a sweetness intensity score to each test sample, including blind duplicates, to the nearest 0.1 unit. All samples were served at room temperature in 4-oz soufflé cups with the test samples labeled with random 3-digit codes. Water and saltine crackers were provided for rinsing between samples.
Both individual mogrosides were also evaluated at five different concentrations in spring water (Ice Mountain, retail) for sweetness intensity. 11-oxo-mogroside was diluted to concentrations ranging from 200 ppm to 600 ppm and mogroside IIIA-1 was diluted to concentrations from 100 to 500 ppm. For each concentration, a set of five sucrose solution reference standards were prepared in 0.5% (w/w) increments to approximately bracket the sweetness intensity of the test sample. A panel of 6-8 trained judges evaluated each test sample in duplicate, accompanied by the corresponding reference standards, and assigned a sweetness intensity score to the sample to the nearest 0.1 unit. Samples were presented in 4-oz soufflé cups at room temperature, and the test sample was labeled with a random 3-digit code. The sweetness intensity scores were then plotted as a function of mogroside concentration to make a concentration response curve, and the best fitting Beidler equation was generated.
The error bars around each point represent 1 standard deviation. The data fit a Beidler equation with an r2 value of 0.961. The equation for this line is:
SEV=16.08*C/(521.2+C) • where SEV is the % sucrose equivalent sweetness as determined by sensory panel and C is the concentration of mogroside blend in ppm or mg/L.
P=SEV*10,000/C • where C is the concentration of the mogroside blend in ppm or mg/L and SEV is the % sucrose equivalent sweetness determined by sensory panel.

[2] = Temporal properties: onset of sweetness, time to maximum sweetness, aftertaste decay, trained sensory panel; format: in vivo, human; settings: solutions at about 6 SEV, room temperature
Experimental: Equi-sweet solutions at about 6 SEV were made in spring water (Ice Mountain, retail) of the following sweeteners: purified mogroside-V (Chem Faces, CFS202202), rebaudioside M (95%, Tate & Lyle, lot #1802-2302-1), rebaudioside A (95%, Tate & Lyle, 210617-01), and monk fruit (50% mogroside V, Tate & Lyle, 45GF220305). Another solution was prepared at about 6 SEV of a blend composed of 80% purified mogroside-V (Chem Faces, CFS202202), 15% 11-oxo-mogroside-V (Chem Faces, CFS202201), and 5% mogroside IIIA-1 (Chem Faces, CFS202201). The concentration of each solution can be found in Table 7.
A set of samples of each solution was evaluated by a panel of 7-9 trained judges. Panelists measured the time to onset of sweetness and time to reach maximum sweetness using a timer. Sweetness decay after expectorating was measured by rating sweetness intensity every 5 seconds on a 15-cm line scale graduated in evenly spaced 5-point increments and labeled low (0) to high (60). Samples were served at room temperature in 4-oz soufflé cups, labeled with random 3-digit codes. Water and saltine crackers were provided for rinsing between samples. Blind duplicates were evaluated in a second panel under the same conditions.
(§1) A solution of V90 was made at 410 ppm in spring water (Ice Mountain, retail) to be about 6 SEV. A second solution was made at about 6 SEV of purified mogroside-V (Chem Faces, CFS202202) at 325 ppm. A panel of 7-8 trained judges evaluated the temporal properties and taste attributes of each sample, including blind duplicates, in the same manner described previously in the Mogroside Blend 80/15/5 Taste Quality sections.
Two individual mogroside components of the blend, 11-oxo mogroside-V (Chem Faces, […]) and mogroside III-A1 (Chem Faces, 202301), were evaluated separately in spring water (Ice Mountain, retail) to determine the concentration needed to reach approximately 6 SEV. Solutions were then prepared at 3600 ppm of 11-oxo-mogroside-V and 600 ppm mogroside IIIA-1.
A panel of 6-7 trained judges evaluated the solutions by measuring the time to onset of sweetness and time to reach maximum sweetness using a timer. Decay of lingering aftertaste after expectorating was measured by rating sweetness intensity every 5 seconds on a 15-cm line scale graduated in evenly spaced 5-point increments and labeled low (0) to high (60). Samples were served at room temperature in 4-oz soufflé cups, labeled with random 3-digit codes, including blinded duplicates. Water and saltine crackers were provided for rinsing between samples.

[3] = Descriptive analysis of sweetener attributes, sensory panel, 15-cm line scale; format: in vivo, human; settings: about 6 SEV in spring water; 0=low, 60=high
Source text: The same samples described above were presented to a panel of 6-9 experienced judges for descriptive analysis. Solutions were blind-coded with random 3-digit codes and served at room temperature for evaluation. Panelists individually scored attributes of each sample, such as sweetness intensity, bitterness, astringency, and the presence of side flavors such as licorice or fruitiness. Scores were based on a 15-cm line scale marked with evenly spaced 5-point increments from low (0) to high (60). Samples were evaluated in duplicate. Water and saltine crackers were provided for rinsing between samples.
as §1
The panel also evaluated the intensity of several sensory attributes such as bitterness, astringency, caramel flavor, and fruitiness. The same 15-cm line scale was used for scoring, labeled from low (0) to high (60) with evenly spaced 5-point increments. The samples were served in 4-oz soufflé cups that were labeled with random 3-digit codes. Samples were evaluated at room temperature and included blind duplicates. Water and saltine crackers were provided for rinsing between samples. A 400-ppm solution of V90 (Huacheng Bio, LHGE-230401) was tasted as a reference at the beginning of the descriptive analysis session for calibration verification among panelists.

[4] = cited from earlier work
[5] = sucrose, not evaluated in this test

## C[C@H](CC[C@@H](O[C@@H]1O[C@H](CO[C@@H]2O[C@H](CO)[C@@H](O)[C@H](O)[C@H]2O)[C@@H](O)[C@H](O)[C@H]1O[C@@H]1O[C@H](CO)[C@@H](O)[C@H](O)[C@H]1O)C(C)(C)O)[C@H]1CC[C@@]2(C)[C@@H]3CC=C4[C@@H](CC[C@H](O[C@@H]5O[C@H](CO[C@@H]6O[C@H](CO)[C@@H](O)[C@H](O)[C@H]6O)[C@@H](O)[C@H](O)[C@H]5O)C4(C)C)[C@]3(C)[C@H](O)C[C@]12C [Mogroside V, mogroside V]
[1]; 1,000 ppm, from Beidler curve
  SEV at 1,000 ppm: 11.5 SEV
[1]; C = concentration
  Beidler equation denominator constant (SEV=a*C/(b+C), b): 920.8 ppm or mg/L
[1]; SEV = % sucrose equivalent sweetness
  Beidler equation numerator constant (SEV=a*C/(b+C), a): 22.03
[1]; at 5 SEV, spring water, room temperature
  Potency at 5 SEV: 185×
[1]; spring water, room temperature, listed as mogroside V
  potency, times as sweet as sucrose at 5 SEV: 185 times as sweet as sucrose
[1]; spring water, room temperature, listed as mogroside-V
  potency, times as sweet as sucrose at 5 SEV: about 185 times as sweet as sucrose
[1]; spring water, room temperature, listed as purified Mog-V
  potency, times as sweet as sucrose at 5 SEV: ~200 times as sweet as sucrose
[1]; at 10 SEV, from Beidler curve
  Potency at 10 SEV: 131×
[2]
  onset of sweetness: 1.1 s
  time to reach maximum sweetness: 2.5 s
[3]
  Astringent, average intensity score: 2.9 and 2.5
  Bitter Linger, average intensity score: 0.0
  Bitterness, average intensity score: 1.1 and 1.4
  Body, average intensity score: 11.9 and 12.1
  Caramel, average intensity score: 4.2 and 4.5
  Fruity, average intensity score: 2.6 and 3.0
  Licorice, average intensity score: 0.8 and 0.7
  Sweet Linger, average intensity score: 16.2 and 14.3
  Sweetness, average intensity score: 35.9 and 36.3

## OC[C@H]1O[C@@](CO)(O[C@H]2O[C@H](CO)[C@@H](O)[C@H](O)[C@H]2O)[C@@H](O)[C@@H]1O [sucrose]
[4]; 6 SEV solution of sucrose
  sweetness decay time (typical value): 20 to 25 s
[4]; [5]
  onset of sweetness (general value, not evaluated in this test): about 0.5 seconds
  time to reach maximum sweetness (general value, not evaluated in this test): around 1 second
